# Results as given in paper PMC3395614, “Functional Evolution of Mammalian Odorant Receptors” (PLoS Genetics, 2012).
# What was measured:
# human OR51L1 = human OR51L1 (Homo sapiens, UniProt Q8NGJ5); experiment: cell-based; parameters: species or system Hana3A; cAMP-mediated luciferase reporter assay of odorant receptor activation, dose-response, ortholog pairs; conditions: ortholog set
# Method: (§1) Figure 2 Response of OR orthologs to 42 chemically diverse odors. (A) Tuning curves of human, chimp and macaque OR2W1 orthologs tested against 42 odors using a cAMP-mediated luciferase assay. Odorants are ordered along the x-axis according to the response elicited from the human OR2W1, with the best ligands closer to the center. Y-axis represents the luciferase response to an odor at 100 µM (n = 3, ± S.E.). Negative values on the y-axis indicate the odor elicited an inhibitory response on OR signaling. See Figure S6 for additional tuning curves. (B) Response of chimp and macaque OR2W1 orthologs (variant responses) plotted against the human OR2W1 response using the data from (A). X-axis and y-axis are response in luciferase assay at 100 µM (n = 3, ± S.E.). The black line represents the unit-slope line. Odor abbreviations in Table S3. We next wanted to examine the functional changes in sensitivity of orthologs to individual ligands by testing each ortholog across a range of concentrations. We selected a single odor for a given OR to construct a representative dose-response curve, fit the data to a sigmoid curve, and then compared the response of the human allele against the primate orthologs and the mouse allele with the rat ortholog using an extra sum of squares test. […]
# chimp OR8D1 [1] = target: T1, chimp OR8D1 (Pan troglodytes, UniProt A0A2J8N1S1); experiment: cAMP-mediated CRE-luciferase reporter dose-response, Hana3A cells; assay type: cell-based; conditions: agonist; human RTP1S and M3 receptor co-expressed; odor 10 nM to 10 mM
# T1 construct: gene LOC466828; full-length ORF from genomic DNA, N-terminal Rho-tag, Hana3A cells with human RTP1S
# chimp OR8D1 [2] = target: T1, chimp OR8D1; experiment: cell-based; parameters: species or system Hana3A; cAMP-mediated luciferase reporter dose-response of odorant receptor orthologs and paralogs
# From the text: (§2) Figure 6 Dose-response curves of OR orthologs and paralogs to a given ligand. (A) OR5K1 orthologs and 5 K subfamily to eugenol methyl ether. (B) OR8D1 orthologs and 8D subfamily members to 4,5-dimethyl-3-hydroxy-2,5-dihydrofuran-2-one. […] X-axis is the concentration of a given odor in Log Molar. Y-axis is normalized response (n = 3, ± S.E.M.). Human (h), chimpanzee (c) and rhesus macaque (m), mouse receptors (m+number); para indicates a receptor that is a paralog to the human reference OR. Vector control is Rho-pCI. See Figure S11 for additional dose-response data from orthologs and subfamily members. Supplementary file pgen.1002821.s018.pdf: Table S5 Comparison of dose-response curves from orthologs and paralogs. LogEC50 (M), Span (dynamic-range) for each OR is given. […] F-ratio and p-values from extra sum-of-squares test. (PDF) Click here for additional data file.  Figure 2 Response of OR orthologs to 42 chemically diverse odors. (A) Tuning curves of human, chimp and macaque OR2W1 orthologs tested against 42 odors using a cAMP-mediated luciferase assay. Odorants are ordered along the x-axis according to the response elicited from the human OR2W1, with the best ligands closer to the center. Y-axis represents the luciferase response to an odor at 100 µM (n = 3, ± S.E.). Negative values on the y-axis indicate the odor elicited an inhibitory response on OR signaling. See Figure S6 for additional tuning curves. (B) Response of chimp and macaque OR2W1 orthologs (variant responses) plotted against the human OR2W1 response using the data from (A). X-axis and y-axis are response in luciferase assay at 100 µM (n = 3, ± S.E.). The black line represents the unit-slope line. Odor abbreviations in Table S3.
# mouse MOR256-17 = target: T2, mouse MOR256-17 (Mus musculus, UniProt P23275); experiment: cell-based; parameters: species or system Hana3A; cAMP-mediated luciferase reporter assay of odorant receptor activation, dose-response, ortholog pairs; conditions: ortholog set
# T2 construct: gene Or2c1
# Method: as §1
# h2B11 = target: T3, h2B11 (Homo sapiens, UniProt Q5JQS5); experiment: cell-based; parameters: species or system Hana3A; cAMP-mediated luciferase reporter dose-response of odorant receptor orthologs and paralogs
# T3 construct: gene OR2B11
# From the text: as §2
# h5P3 = target: T4, h5P3 (Homo sapiens, UniProt Q8WZ94); experiment: cell-based; parameters: species or system Hana3A; cAMP-mediated luciferase reporter dose-response of odorant receptor orthologs and paralogs
# T4 construct: gene OR5P3
# From the text: as §2
# h10J1 = target: T5, h10J1 (Homo sapiens, UniProt P30954); experiment: cell-based; parameters: species or system Hana3A; cAMP-mediated luciferase reporter dose-response of odorant receptor orthologs and paralogs
# T5 construct: gene OR10J1
# From the text: as §2
# h10J5 = target: T6, h10J5 (Homo sapiens, UniProt Q8NHC4); experiment: cell-based; parameters: species or system Hana3A; cAMP-mediated luciferase reporter dose-response of odorant receptor orthologs and paralogs
# T6 construct: gene OR10J5
# From the text: as §2
# MOR267-13 = target: T7, MOR267-13 (Mus musculus, UniProt Q62007); experiment: cell-based; parameters: species or system Hana3A; cAMP-mediated luciferase reporter assay of odorant receptor activation, dose-response, orthologs and paralogs; conditions: ortholog and paralog set
# T7 construct: gene Or10j5
# Method: Figure 2 Response of OR orthologs to 42 chemically diverse odors. (A) Tuning curves of human, chimp and macaque OR2W1 orthologs tested against 42 odors using a cAMP-mediated luciferase assay. Odorants are ordered along the x-axis according to the response elicited from the human OR2W1, with the best ligands closer to the center. Y-axis represents the luciferase response to an odor at 100 µM (n = 3, ± S.E.). Negative values on the y-axis indicate the odor elicited an inhibitory response on OR signaling. See Figure S6 for additional tuning curves. (B) Response of chimp and macaque OR2W1 orthologs (variant responses) plotted against the human OR2W1 response using the data from (A). X-axis and y-axis are response in luciferase assay at 100 µM (n = 3, ± S.E.). The black line represents the unit-slope line. Odor abbreviations in Table S3. Figure 6 Dose-response curves of OR orthologs and paralogs to a given ligand. (A) OR5K1 orthologs and 5 K subfamily to eugenol methyl ether. (B) OR8D1 orthologs and 8D subfamily members to 4,5-dimethyl-3-hydroxy-2,5-dihydrofuran-2-one. […] X-axis is the concentration of a given odor in Log Molar. Y-axis is normalized response (n = 3, ± S.E.M.). Human (h), chimpanzee (c) and rhesus macaque (m), mouse receptors (m+number); para indicates a receptor that is a paralog to the human reference OR. Vector control is Rho-pCI. […]
# OR2J2 (human) [3] = target: T8, OR2J2 (human) (Homo sapiens, UniProt O76002); experiment: cAMP-mediated CRE-luciferase reporter dose-response, Hana3A cells; assay type: cell-based; conditions: agonist; human RTP1S and M3 receptor co-expressed; odor 10 nM to 10 mM
# T8 construct: full-length ORF from genomic DNA, N-terminal Rho-tag, Hana3A cells with human RTP1S
# T8 sequence (O76002 1-312): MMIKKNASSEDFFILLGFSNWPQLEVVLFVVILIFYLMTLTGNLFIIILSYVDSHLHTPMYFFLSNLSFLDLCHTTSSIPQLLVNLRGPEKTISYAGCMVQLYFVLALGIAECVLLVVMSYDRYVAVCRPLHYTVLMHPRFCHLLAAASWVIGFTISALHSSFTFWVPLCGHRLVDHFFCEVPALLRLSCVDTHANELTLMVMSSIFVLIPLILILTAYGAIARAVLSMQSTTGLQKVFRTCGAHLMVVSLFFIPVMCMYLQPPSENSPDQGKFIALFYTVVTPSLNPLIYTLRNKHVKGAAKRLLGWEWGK
# h2J3 = target: T9, h2J3 (Homo sapiens, UniProt O76001); experiment: cell-based; parameters: species or system Hana3A; cAMP-mediated luciferase reporter dose-response of odorant receptor orthologs and paralogs
# T9 construct: gene OR2J3
# From the text: as §2
# OR2J2 (human) [4] = target: T8, OR2J2 (human); experiment: cell-based; parameters: species or system Hana3A; cAMP-mediated luciferase reporter dose-response of odorant receptor orthologs and paralogs
# From the text: as §2
# h2J1 = target: T10, h2J1 (Homo sapiens, UniProt Q9GZK6); experiment: cell-based; parameters: species or system Hana3A; cAMP-mediated luciferase reporter dose-response of odorant receptor orthologs and paralogs
# T10 construct: gene OR2J1
# From the text: as §2
# h10G3 = target: T11, h10G3 (Homo sapiens, UniProt Q8NGC4); experiment: cell-based; parameters: species or system Hana3A; cAMP-mediated luciferase reporter dose-response of odorant receptor orthologs and paralogs
# T11 construct: gene OR10G3
# From the text: as §2
# h10G4 = target: T12, h10G4 (Homo sapiens, UniProt Q8NGN3); experiment: cell-based; parameters: species or system Hana3A; cAMP-mediated luciferase reporter dose-response of odorant receptor orthologs and paralogs
# T12 construct: gene OR10G4
# From the text: as §2
# h10G9 = target: T13, h10G9 (Homo sapiens, UniProt Q8NGN4); experiment: cell-based; parameters: species or system Hana3A; cAMP-mediated luciferase reporter dose-response of odorant receptor orthologs and paralogs
# T13 construct: gene OR10G9
# From the text: as §2
# h2A25 = target: T14, h2A25 (Homo sapiens, UniProt A4D2G3); experiment: cell-based; parameters: species or system Hana3A; cAMP-mediated luciferase reporter dose-response of odorant receptor orthologs and paralogs
# T14 construct: gene OR2A25
# From the text: as §2
# h56A5 = target: T15, h56A5 (Homo sapiens, UniProt P0C7T3); experiment: cell-based; parameters: species or system Hana3A; cAMP-mediated luciferase reporter dose-response of odorant receptor orthologs and paralogs
# T15 construct: gene OR56A5
# From the text: as §2
# h56A1 = target: T16, h56A1 (Homo sapiens, UniProt Q8NGH5); experiment: cell-based; parameters: species or system Hana3A; cAMP-mediated luciferase reporter dose-response of odorant receptor orthologs and paralogs
# T16 construct: gene OR56A1
# From the text: as §2
# h56A4 = target: T17, h56A4 (Homo sapiens, UniProt Q8NGH8); experiment: cell-based; parameters: species or system Hana3A; cAMP-mediated luciferase reporter dose-response of odorant receptor orthologs and paralogs
# T17 construct: gene OR56A4
# From the text: as §2
# chimp OR5K1 = target: T18, chimp OR5K1 (Pan troglodytes, UniProt A0A2J8MY22); experiment: cAMP-mediated CRE-luciferase reporter dose-response, Hana3A cells; assay type: cell-based; conditions: agonist; human RTP1S and M3 receptor co-expressed; odor 10 nM to 10 mM
# T18 construct: gene LOC470870; full-length ORF from genomic DNA, N-terminal Rho-tag, Hana3A cells with human RTP1S
# h51E1 = target: T19, h51E1 (Homo sapiens, UniProt Q8TCB6); experiment: cell-based; parameters: species or system Hana3A; cAMP-mediated luciferase reporter dose-response of odorant receptor orthologs and paralogs
# T19 construct: gene OR51E1
# From the text: as §2
# chimp OR8K3 [5] = target: T20, chimp OR8K3 (Pan troglodytes, UniProt A0A2J8LC19); experiment: cell-based; parameters: species or system Hana3A; cAMP-mediated luciferase reporter dose-response of odorant receptor orthologs and paralogs
# T20 construct: gene LOC466557; full-length ORF from genomic DNA, N-terminal Rho-tag, Hana3A cells with human RTP1S
# From the text: as §2
# chimp OR8K3 [6] = target: T20, chimp OR8K3; experiment: cAMP-mediated CRE-luciferase reporter dose-response, Hana3A cells; assay type: cell-based; conditions: agonist; human RTP1S and M3 receptor co-expressed; odor 10 nM to 10 mM
# T20 sequence (A0A2J8LC19 1-312): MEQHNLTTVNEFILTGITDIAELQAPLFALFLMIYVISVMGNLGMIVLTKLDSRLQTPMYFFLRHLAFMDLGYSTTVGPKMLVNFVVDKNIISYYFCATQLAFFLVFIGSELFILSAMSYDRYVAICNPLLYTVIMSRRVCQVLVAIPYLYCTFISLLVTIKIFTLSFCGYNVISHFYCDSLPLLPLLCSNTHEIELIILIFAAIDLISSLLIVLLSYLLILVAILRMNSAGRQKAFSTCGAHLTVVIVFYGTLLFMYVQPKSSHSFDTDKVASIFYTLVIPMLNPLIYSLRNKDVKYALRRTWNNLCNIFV
# T1 sequence (A0A2J8N1S1 1-308): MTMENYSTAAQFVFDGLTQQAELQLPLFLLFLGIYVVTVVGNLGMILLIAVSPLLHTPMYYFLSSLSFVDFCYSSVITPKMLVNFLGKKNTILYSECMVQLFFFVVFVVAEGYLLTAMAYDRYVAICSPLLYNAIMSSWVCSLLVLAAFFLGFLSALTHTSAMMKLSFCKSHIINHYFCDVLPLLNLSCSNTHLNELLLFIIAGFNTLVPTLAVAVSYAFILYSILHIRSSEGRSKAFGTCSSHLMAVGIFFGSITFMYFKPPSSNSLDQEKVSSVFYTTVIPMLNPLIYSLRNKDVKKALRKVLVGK
# T9 sequence (O76001 whole entry): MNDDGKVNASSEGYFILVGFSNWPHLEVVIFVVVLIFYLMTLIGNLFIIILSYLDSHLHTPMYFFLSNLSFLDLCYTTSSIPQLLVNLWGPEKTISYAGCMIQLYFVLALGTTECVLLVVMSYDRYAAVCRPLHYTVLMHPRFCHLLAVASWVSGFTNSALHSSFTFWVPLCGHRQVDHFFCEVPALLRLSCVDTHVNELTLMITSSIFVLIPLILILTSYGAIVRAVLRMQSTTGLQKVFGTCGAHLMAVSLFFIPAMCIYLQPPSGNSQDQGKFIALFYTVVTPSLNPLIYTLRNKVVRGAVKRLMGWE
# T10 sequence (Q9GZK6 whole entry): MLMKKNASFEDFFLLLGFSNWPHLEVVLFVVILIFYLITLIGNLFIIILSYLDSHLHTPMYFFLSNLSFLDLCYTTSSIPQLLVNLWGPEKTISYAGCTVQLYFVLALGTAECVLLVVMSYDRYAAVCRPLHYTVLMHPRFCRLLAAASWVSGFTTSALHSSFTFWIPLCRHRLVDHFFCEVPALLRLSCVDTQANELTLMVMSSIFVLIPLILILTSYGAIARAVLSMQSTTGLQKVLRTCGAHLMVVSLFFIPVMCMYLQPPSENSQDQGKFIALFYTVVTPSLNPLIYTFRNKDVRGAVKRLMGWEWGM
# T11 sequence (Q8NGC4 whole entry): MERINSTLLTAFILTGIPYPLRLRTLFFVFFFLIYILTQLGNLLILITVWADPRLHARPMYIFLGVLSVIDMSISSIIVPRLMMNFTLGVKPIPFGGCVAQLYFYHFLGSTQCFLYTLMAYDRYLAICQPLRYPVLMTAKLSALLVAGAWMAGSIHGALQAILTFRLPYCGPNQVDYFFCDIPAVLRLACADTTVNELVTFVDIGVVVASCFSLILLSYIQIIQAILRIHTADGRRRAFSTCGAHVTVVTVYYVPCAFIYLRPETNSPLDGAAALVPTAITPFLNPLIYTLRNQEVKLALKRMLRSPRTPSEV
# T3 sequence (Q5JQS5 whole entry): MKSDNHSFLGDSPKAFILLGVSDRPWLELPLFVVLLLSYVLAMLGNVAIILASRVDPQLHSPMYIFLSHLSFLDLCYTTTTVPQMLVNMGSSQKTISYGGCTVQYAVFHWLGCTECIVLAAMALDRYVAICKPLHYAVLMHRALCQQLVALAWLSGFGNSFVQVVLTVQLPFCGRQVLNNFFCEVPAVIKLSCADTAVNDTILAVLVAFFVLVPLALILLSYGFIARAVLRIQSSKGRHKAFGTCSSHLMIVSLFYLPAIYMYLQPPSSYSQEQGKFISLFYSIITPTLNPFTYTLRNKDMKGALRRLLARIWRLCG
# T19 sequence (Q8TCB6 whole entry): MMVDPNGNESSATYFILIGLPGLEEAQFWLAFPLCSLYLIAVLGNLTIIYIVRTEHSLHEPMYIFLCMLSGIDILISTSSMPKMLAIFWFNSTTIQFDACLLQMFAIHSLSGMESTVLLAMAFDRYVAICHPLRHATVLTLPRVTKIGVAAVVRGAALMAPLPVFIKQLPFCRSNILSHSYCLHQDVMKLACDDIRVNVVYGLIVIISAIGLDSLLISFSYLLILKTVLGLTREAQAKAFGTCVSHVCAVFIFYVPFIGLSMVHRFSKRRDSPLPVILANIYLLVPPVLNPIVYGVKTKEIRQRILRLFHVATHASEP
# T2 sequence (P23275 whole entry): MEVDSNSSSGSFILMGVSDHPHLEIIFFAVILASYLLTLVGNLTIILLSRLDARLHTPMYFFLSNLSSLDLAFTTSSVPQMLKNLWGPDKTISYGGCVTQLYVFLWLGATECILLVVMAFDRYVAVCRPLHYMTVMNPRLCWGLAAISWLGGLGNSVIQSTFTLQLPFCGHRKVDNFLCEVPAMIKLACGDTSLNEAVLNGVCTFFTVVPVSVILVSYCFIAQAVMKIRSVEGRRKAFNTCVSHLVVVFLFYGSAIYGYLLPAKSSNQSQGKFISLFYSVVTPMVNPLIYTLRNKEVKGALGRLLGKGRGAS
# T13 sequence (Q8NGN4 whole entry): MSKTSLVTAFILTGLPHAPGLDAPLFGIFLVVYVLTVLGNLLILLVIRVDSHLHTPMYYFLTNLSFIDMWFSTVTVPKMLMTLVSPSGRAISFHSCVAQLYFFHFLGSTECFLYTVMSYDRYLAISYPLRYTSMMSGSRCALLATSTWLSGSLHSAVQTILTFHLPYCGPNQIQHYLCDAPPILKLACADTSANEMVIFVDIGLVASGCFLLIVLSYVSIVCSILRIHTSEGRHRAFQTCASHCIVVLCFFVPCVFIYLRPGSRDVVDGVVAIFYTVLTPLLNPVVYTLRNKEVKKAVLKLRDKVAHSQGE
# T14 sequence (A4D2G3 whole entry): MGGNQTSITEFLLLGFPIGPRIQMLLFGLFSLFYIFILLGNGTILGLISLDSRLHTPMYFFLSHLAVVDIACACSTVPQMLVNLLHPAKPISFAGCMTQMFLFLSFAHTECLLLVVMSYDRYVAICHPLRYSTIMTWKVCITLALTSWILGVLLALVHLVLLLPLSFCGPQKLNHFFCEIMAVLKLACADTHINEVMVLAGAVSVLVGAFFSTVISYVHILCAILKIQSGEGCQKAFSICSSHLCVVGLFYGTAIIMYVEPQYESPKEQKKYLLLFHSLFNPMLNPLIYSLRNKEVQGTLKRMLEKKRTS
# T15 sequence (P0C7T3 whole entry): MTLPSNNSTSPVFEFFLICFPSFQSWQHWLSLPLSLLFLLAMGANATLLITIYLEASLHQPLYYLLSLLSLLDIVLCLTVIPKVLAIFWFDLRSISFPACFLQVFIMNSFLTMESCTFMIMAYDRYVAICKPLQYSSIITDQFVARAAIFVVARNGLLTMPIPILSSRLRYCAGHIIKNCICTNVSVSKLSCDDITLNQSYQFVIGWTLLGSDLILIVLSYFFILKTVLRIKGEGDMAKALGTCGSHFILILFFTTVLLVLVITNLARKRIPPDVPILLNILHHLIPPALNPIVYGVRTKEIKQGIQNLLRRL
# T5 sequence (P30954 whole entry): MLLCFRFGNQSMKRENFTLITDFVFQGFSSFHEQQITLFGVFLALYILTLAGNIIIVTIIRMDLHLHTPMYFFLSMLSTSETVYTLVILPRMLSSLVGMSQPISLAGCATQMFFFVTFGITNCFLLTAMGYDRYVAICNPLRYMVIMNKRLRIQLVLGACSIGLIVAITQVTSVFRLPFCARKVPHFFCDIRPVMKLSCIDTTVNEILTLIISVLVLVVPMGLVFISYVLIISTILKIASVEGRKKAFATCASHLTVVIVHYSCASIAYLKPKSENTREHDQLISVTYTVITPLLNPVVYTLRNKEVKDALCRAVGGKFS
# T4 sequence (Q8WZ94 whole entry): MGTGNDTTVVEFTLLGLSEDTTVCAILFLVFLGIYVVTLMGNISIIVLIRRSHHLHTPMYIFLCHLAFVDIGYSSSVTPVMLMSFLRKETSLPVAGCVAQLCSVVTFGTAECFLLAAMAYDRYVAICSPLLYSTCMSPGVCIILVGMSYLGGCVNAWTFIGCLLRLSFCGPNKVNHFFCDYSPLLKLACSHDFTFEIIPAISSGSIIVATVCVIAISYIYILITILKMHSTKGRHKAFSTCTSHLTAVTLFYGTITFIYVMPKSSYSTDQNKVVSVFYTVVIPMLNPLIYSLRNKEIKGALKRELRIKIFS
# T16 sequence (Q8NGH5 whole entry): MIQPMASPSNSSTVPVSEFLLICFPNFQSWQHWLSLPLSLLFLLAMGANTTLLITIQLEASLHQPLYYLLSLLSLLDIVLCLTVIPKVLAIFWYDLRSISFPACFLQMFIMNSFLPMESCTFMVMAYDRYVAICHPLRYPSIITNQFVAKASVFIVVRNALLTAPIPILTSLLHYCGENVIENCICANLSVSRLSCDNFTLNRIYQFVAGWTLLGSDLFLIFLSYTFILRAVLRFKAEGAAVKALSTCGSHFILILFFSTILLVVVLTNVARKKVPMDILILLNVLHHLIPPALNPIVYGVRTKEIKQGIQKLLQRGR
# T18 sequence (A0A2J8MY22 1-308): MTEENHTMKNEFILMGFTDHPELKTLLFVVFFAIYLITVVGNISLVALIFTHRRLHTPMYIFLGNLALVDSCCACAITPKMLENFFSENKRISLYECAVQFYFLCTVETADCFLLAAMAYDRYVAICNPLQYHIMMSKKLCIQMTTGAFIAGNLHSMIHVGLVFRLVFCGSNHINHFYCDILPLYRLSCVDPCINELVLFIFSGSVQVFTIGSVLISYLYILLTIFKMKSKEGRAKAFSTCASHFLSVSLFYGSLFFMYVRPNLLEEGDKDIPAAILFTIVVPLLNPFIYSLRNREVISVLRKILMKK
smiles,measurement,setting,value
C=CCOC(=O)Cc1ccccc1 [allyl phenyl acetate],EC50,human OR51L1,9.12 µM
"CC1=C(O)C(=O)OC1C (stereo not shown) [4,5-dimethyl-3-hydroxy-2,5-dihydrofuran-2-one]",LogEC50,chimp OR8D1 [1],Human OR8D1 is hyperfunctional to chimp and macaque OR8D1 orthologs
same,EC50,chimp OR8D1 [2],18.6 µM
O=c1ccc2ccccc2o1 [coumarin],EC50,mouse MOR256-17,44.7 µM
same,EC50,h2B11,72.4 µM
same,EC50,h5P3,2.95 µM
CC(C)(O)CCCC1=CCC(C=O)CC1 (stereo not shown) [lyral],EC50,h10J1,724 µM
same,EC50,h10J5,47.9 µM
same,EC50,MOR267-13,20.9 µM
CCCCCCCCO [1-octanol],LogEC50,OR2J2 (human) [3],OR2J2 orthologs and 2J subfamily members to 1-octanol
same,EC50,h2J3,1.86 µM
same,EC50,OR2J2 (human) [4],7.41 µM
same,EC50,h2J1,112 µM
CCOc1cc(C=O)ccc1O [ethyl vanillin],EC50,h10G3,41.7 µM
same,EC50,h10G4,40.7 µM
same,EC50,h10G9,537 µM
CC(=O)OC/C=C(\C)CCC=C(C)C [geranyl acetate],EC50,h2A25,9.55 µM
same,EC50,h2J3,162 µM
same,EC50,OR2J2 (human) [4],42.7 µM
same,EC50,h2J1,479 µM
CCCCCCCCCC=O [decyl aldehyde],EC50,h56A5,162 µM
same,EC50,h56A1,575 µM
same,EC50,h56A4,191 µM
C=CCc1ccc(OC)c(OC)c1 [eugenol methyl ether],LogEC50,chimp OR5K1,human OR5K1 is hyperfunctional to both chimp and macaque OR5K1 orthologs
C=CCc1ccc(O)c(OC)c1 [eugenol],EC50,h10G3,132 µM
CCCC(=O)O [butyric acid],EC50,h51E1,57.5 µM
CC(C)[C@H]1CC[C@H](C)C[C@@H]1O [(+)-menthol],EC50,chimp OR8K3 [5],9.12 µM
same,LogEC50,chimp OR8K3 [6],human and chimp OR8K3 orthologs are indistinguishable in their response to (+)-menthol
